Measured values published in ChEMBL document CHEMBL6083215, “Structure elucidation, absolute configuration, and biological evaluation of cyclic peroxides from the sponge Plakinastrella sp” (2024).

Assays:
Type in all cases: functional
NCI-H322M = assay: Growth inhibition of human NCI-H322M cells
HCC 2998 = assay: Growth inhibition of human HCC 2998 cells
SNB-19 = assay: Growth inhibition of human SNB-19 cells
HOP-92 = assay: Growth inhibition of human HOP-92 cells
SR = assay: Growth inhibition of human SR cells
UO-31 = assay: Growth inhibition of human UO-31 cells
A498 = assay: Growth inhibition of human A498 cells
MCF7 = assay: Growth inhibition of human MCF7 cells
MOLT-4 = assay: Growth inhibition of human MOLT-4 cells
NCI/ADR-RES = assay: Growth inhibition of human NCI-ADR-RES cells
BT-549 = assay: Growth inhibition of human BT-549 cells
LOX IMVI = assay: Growth inhibition of human LOX IMVI cells
RPMI-8226 = assay: Growth inhibition of human RPMI-8226 cells
NCI-H522 = assay: Growth inhibition of human NCI-H522 cells
HT-29 = assay: Growth inhibition of human HT-29 cells
Malme-3M = assay: Growth inhibition of human Malme-3M cells
HL-60(TB) = assay: Growth inhibition of human HL-60(TB) cells
SK-OV-3 = assay: Growth inhibition of human SK-OV-3 cells
ACHN = assay: Growth inhibition of human ACHN cells
Hs-578T = assay: Growth inhibition of human HS 578T cells
HCT-116 = assay: Growth inhibition of human HCT-116 cells
MDA-MB-231 = assay: Growth inhibition of human MDA-MB-231 cells
EKVX = assay: Growth inhibition of human EKVX cells
DU-145 = assay: Growth inhibition of human DU-145 cells
SF-539 = assay: Growth inhibition of human SF-539 cells
OVCAR-4 = assay: Growth inhibition of human OVCAR-4 cells
HCT-15 = assay: Growth inhibition of human HCT-15 cells
MDA-MB-468 = assay: Growth inhibition of human MDA-MB-468 cells
786-0 = assay: Growth inhibition of human 786-0 cells
SN12C = assay: Growth inhibition of human SN12C cells
SK-MEL-5 = assay: Growth inhibition of human SK-MEL-5 cells
SF-268 = assay: Growth inhibition of human SF-268 cells
NCI-H23 = assay: Growth inhibition of human NCI-H23 cells
HOP-62 = assay: Growth inhibition of human HOP-62 cells
OVCAR-5 = assay: Growth inhibition of human OVCAR-5 cells
SK-MEL-28 = assay: Growth inhibition of human SK-MEL-28 cells
T47D = assay: Growth inhibition of human T47D cells
K562 = assay: Growth inhibition of human K562 cells
NCI-H226 = assay: Growth inhibition of human NCI-H226 cells
RXF 393 = assay: Growth inhibition of human RXF 393 cells
TK-10 = assay: Growth inhibition of human TK-10 cells
OVCAR-8 = assay: Growth inhibition of human OVCAR-8 cells
SF-295 = assay: Growth inhibition of human SF-295 cells
UACC-62 = assay: Growth inhibition of human UACC-62 cells
M14 = assay: Growth inhibition of human M14 cells
KM12 = assay: Growth inhibition of human KM12 cells
PC-3 = assay: Growth inhibition of human PC-3 cells
IGROV-1 = assay: Growth inhibition of human IGROV-1 cells
SNB-75 = assay: Growth inhibition of human SNB-75 cells
OVCAR-3 = assay: Growth inhibition of human OVCAR-3 cells
U-251 = assay: Growth inhibition of human U-251 cells
CCRF-CEM = assay: Growth inhibition of human CCRF-CEM cells
A549 = assay: Growth inhibition of human A549 cells
CAKI-1 = assay: Growth inhibition of human CAKI-1 cells
SK-MEL-2 = assay: Growth inhibition of human SK-MEL-2 cells
UACC-257 = assay: Growth inhibition of human UACC-257 cells
MDA-MB-435 = assay: Growth inhibition of human MDA-MB-435 cells
COLO 205 = assay: Growth inhibition of human COLO 205 cells
SW-620 = assay: Growth inhibition of human SW620 cells
NCI-H460 = assay: Growth inhibition of human NCI-H460 cells

CCCCCCCCC/C=C(/C)CC(C)(O)CC(C)C(O)CC(=O)OC (stereo not given)
GI50 (NCI-H322M): > 100000 nM | GI50 (HCC 2998): > 100000 nM | GI50 (SNB-19): > 100000 nM | GI50 (HOP-92): > 100000 nM | GI50 (SR): > 100000 nM | GI50 (UO-31): > 100000 nM | GI50 (A498): > 100000 nM | GI50 (MCF7): > 100000 nM | GI50 (MOLT-4): > 100000 nM | GI50 (NCI/ADR-RES): > 100000 nM | GI50 (BT-549): > 100000 nM | GI50 (LOX IMVI): > 100000 nM | GI50 (RPMI-8226): > 100000 nM | GI50 (NCI-H522): > 100000 nM | GI50 (HT-29): > 100000 nM | GI50 (Malme-3M): > 100000 nM | GI50 (HL-60(TB)): > 100000 nM | GI50 (SK-OV-3): > 100000 nM | GI50 (ACHN): > 100000 nM | GI50 (Hs-578T): > 100000 nM | GI50 (HCT-116): > 100000 nM | GI50 (MDA-MB-231): > 100000 nM | GI50 (EKVX): > 100000 nM | GI50 (DU-145): > 100000 nM | GI50 (SF-539): > 100000 nM | GI50 (OVCAR-4): > 100000 nM | GI50 (HCT-15): > 100000 nM | GI50 (MDA-MB-468): > 100000 nM | GI50 (786-0): > 100000 nM | GI50 (SN12C): > 100000 nM | GI50 (SK-MEL-5): > 100000 nM | GI50 (SF-268): > 100000 nM | GI50 (NCI-H23): > 100000 nM | GI50 (HOP-62): > 100000 nM | GI50 (OVCAR-5): > 100000 nM | GI50 (SK-MEL-28): > 100000 nM | GI50 (T47D): > 100000 nM | GI50 (K562): > 100000 nM | GI50 (NCI-H226): > 100000 nM | GI50 (RXF 393): > 100000 nM | GI50 (TK-10): > 100000 nM | GI50 (OVCAR-8): > 100000 nM | GI50 (SF-295): > 100000 nM | GI50 (UACC-62): > 100000 nM | GI50 (M14): > 100000 nM | GI50 (KM12): > 100000 nM | GI50 (PC-3): > 100000 nM | GI50 (IGROV-1): > 100000 nM | GI50 (SNB-75): > 100000 nM | GI50 (OVCAR-3): > 100000 nM | GI50 (U-251): > 100000 nM | GI50 (CCRF-CEM): > 100000 nM | GI50 (A549): > 100000 nM | GI50 (CAKI-1): > 100000 nM | GI50 (SK-MEL-2): > 100000 nM | GI50 (UACC-257): > 100000 nM | GI50 (MDA-MB-435): > 100000 nM | GI50 (COLO 205): > 100000 nM | GI50 (SW-620): > 100000 nM | GI50 (NCI-H460): > 100000 nM

CCCCCCCC/C=C(/C)C[C@]1(C)C[C@H](C)[C@@H](CC(=O)O)OO1
GI50 (NCI-H322M): 600 nM | GI50 (HCC 2998): 600 nM | GI50 (SNB-19): 600 nM | GI50 (HOP-92): 600 nM | GI50 (SR): 600 nM | GI50 (UO-31): 60 nM | GI50 (A498): 600 nM | GI50 (MCF7): 600 nM | GI50 (MOLT-4): 600 nM | GI50 (NCI/ADR-RES): 600 nM | GI50 (BT-549): 600 nM | GI50 (LOX IMVI): 10 nM | GI50 (RPMI-8226): 600 nM | GI50 (NCI-H522): 600 nM | GI50 (HT-29): 600 nM | GI50 (Malme-3M): 600 nM | GI50 (HL-60(TB)): 90 nM | GI50 (SK-OV-3): 600 nM | GI50 (ACHN): 600 nM | GI50 (Hs-578T): 600 nM | GI50 (HCT-116): 600 nM | GI50 (MDA-MB-231): 600 nM | GI50 (EKVX): 600 nM | GI50 (DU-145): 600 nM | GI50 (SF-539): 600 nM | GI50 (OVCAR-4): 600 nM | GI50 (HCT-15): 600 nM | GI50 (MDA-MB-468): 600 nM | GI50 (786-0): 600 nM | GI50 (SN12C): 600 nM | GI50 (SK-MEL-5): 600 nM | GI50 (SF-268): 600 nM | GI50 (NCI-H23): 600 nM | GI50 (HOP-62): 600 nM | GI50 (OVCAR-5): 600 nM | GI50 (SK-MEL-28): 600 nM | GI50 (T47D): 600 nM | GI50 (K562): 600 nM | GI50 (NCI-H226): 600 nM | GI50 (RXF 393): 600 nM | GI50 (TK-10): 600 nM | GI50 (OVCAR-8): 600 nM | GI50 (SF-295): 600 nM | GI50 (UACC-62): 600 nM | GI50 (M14): 600 nM | GI50 (KM12): 600 nM | GI50 (PC-3): 600 nM | GI50 (IGROV-1): 600 nM | GI50 (SNB-75): 600 nM | GI50 (OVCAR-3): 600 nM | GI50 (U-251): 600 nM | GI50 (CCRF-CEM): 600 nM | GI50 (A549): 600 nM | GI50 (CAKI-1): 600 nM | GI50 (SK-MEL-2): 600 nM | GI50 (UACC-257): 600 nM | GI50 (MDA-MB-435): 600 nM | GI50 (COLO 205): 600 nM | GI50 (SW-620): 600 nM | GI50 (NCI-H460): 600 nM
